Columns and labels:
Substance-K receptor = target: T1, Substance-K receptor (Homo sapiens, UniProt P21452); assay type: cell membranes, CHO, Membrane
T1 sequence (P21452 whole entry): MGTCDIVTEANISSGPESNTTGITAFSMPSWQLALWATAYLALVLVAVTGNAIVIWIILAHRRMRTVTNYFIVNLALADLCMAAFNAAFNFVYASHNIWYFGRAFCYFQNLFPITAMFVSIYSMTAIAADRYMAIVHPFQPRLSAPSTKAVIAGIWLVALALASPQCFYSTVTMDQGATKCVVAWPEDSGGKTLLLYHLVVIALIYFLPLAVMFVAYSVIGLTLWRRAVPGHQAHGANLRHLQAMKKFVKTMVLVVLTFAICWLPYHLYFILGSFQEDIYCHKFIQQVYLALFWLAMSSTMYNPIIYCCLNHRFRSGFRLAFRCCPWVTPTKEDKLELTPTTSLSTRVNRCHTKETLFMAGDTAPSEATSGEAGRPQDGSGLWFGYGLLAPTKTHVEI

[1] = target: C-C chemokine receptor type 2 (Homo sapiens, UniProt P41597); assay type: cell membranes, CHO-K1, Membrane; conditions: cho-k1
Substance-P receptor = Substance-P receptor (Homo sapiens, UniProt P25103); assay type: cell membranes, CHO, Membrane
[2] = target: Voltage-gated inwardly rectifying potassium channel KCNH2 (Homo sapiens, UniProt Q12809); conditions: hek293
[3] = target: 5-hydroxytryptamine receptor 2B (Homo sapiens, UniProt P41595); assay type: cell membranes, CHO-K1, Membrane
Further: in other assays of this panel Not Active means under 50% inhibition at 10 µM.

Chain of Voltage-gated inwardly rectifying potassium channel KCNH2 (Q12809 whole entry): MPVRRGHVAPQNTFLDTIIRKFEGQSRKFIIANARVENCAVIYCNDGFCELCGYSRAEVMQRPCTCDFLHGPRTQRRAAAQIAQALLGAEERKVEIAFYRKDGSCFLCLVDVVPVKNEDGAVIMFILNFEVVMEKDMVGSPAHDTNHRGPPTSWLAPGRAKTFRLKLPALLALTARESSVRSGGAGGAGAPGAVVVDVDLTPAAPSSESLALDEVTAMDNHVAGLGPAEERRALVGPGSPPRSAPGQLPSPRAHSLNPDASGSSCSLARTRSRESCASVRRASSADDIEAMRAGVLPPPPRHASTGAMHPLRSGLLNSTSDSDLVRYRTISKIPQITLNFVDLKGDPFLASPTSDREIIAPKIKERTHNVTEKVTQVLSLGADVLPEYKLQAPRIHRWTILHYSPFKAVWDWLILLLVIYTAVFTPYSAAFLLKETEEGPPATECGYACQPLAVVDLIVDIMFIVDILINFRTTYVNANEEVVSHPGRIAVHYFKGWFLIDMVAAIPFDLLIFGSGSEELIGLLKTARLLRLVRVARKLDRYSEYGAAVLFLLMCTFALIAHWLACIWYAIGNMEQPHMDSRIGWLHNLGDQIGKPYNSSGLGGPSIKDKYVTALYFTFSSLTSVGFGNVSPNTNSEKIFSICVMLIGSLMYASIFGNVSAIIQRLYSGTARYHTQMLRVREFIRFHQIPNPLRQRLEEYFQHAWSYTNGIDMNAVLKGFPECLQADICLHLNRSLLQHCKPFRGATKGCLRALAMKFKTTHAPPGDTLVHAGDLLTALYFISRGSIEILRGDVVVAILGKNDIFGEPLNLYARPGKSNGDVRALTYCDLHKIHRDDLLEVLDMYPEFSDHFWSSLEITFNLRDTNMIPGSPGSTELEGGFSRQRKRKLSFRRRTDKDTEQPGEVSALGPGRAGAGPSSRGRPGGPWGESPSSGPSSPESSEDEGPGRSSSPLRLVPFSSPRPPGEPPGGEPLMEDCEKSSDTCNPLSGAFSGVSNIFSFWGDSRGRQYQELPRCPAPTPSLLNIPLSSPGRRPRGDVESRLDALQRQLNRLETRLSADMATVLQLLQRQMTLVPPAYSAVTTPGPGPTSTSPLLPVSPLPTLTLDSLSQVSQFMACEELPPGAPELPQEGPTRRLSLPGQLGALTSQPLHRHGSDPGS
Chain of 5-hydroxytryptamine receptor 2B (P41595 whole entry): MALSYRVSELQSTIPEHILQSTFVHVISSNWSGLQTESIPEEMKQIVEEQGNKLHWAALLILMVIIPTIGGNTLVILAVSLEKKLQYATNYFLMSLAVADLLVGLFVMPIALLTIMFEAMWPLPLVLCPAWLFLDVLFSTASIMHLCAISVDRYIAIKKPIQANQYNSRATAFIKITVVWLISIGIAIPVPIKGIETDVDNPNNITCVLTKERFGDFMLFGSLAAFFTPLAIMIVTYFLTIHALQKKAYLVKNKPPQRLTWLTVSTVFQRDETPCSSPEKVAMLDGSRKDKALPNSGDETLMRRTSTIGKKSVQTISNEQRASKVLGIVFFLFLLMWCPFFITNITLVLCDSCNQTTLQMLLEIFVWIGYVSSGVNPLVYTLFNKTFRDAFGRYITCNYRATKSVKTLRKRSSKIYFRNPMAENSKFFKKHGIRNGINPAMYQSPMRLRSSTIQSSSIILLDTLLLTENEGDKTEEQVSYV
Chain of C-C chemokine receptor type 2 (P41597 whole entry): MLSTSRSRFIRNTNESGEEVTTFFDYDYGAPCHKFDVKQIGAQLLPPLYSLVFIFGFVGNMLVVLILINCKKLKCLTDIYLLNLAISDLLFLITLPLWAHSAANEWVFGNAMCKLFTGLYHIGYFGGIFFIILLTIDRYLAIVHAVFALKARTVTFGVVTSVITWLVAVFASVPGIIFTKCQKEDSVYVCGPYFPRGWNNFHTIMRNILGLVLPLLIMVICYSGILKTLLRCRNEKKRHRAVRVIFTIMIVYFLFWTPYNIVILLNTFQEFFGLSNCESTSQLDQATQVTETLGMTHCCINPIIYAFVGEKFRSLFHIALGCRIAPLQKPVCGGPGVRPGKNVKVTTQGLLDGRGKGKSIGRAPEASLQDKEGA
Chain of Substance-P receptor (P25103 whole entry): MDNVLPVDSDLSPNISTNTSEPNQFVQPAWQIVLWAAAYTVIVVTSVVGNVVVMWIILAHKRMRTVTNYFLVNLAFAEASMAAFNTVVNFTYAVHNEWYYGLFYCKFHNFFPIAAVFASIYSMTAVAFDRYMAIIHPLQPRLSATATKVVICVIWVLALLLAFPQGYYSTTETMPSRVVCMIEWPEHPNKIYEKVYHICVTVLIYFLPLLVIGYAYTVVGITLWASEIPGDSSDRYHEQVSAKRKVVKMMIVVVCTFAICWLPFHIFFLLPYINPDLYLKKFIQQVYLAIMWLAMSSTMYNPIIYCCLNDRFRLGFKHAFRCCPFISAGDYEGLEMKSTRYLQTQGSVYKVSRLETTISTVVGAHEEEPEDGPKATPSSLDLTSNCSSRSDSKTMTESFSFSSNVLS

Row | Compound | IC50 (Substance-K receptor; cho) | IC50 [1] | IC50 (Substance-P receptor; cho) | IC50 [2] | Ki [2] | IC50 ([3]; cho-k1) | IC50 ([3]; read-out: IC50) | Ki ([3]; read-out: Ki) | IC50 (Substance-K receptor; read-out: IC50) | Ki (Substance-K receptor; read-out: Ki) | IC50 (Substance-P receptor; read-out: IC50) | Ki (Substance-P receptor; read-out: Ki) | Ki ([3]; cho-k1) | Ki (Substance-K receptor; cho) | Ki [1] | Ki (Substance-P receptor; cho)
1 | Cc1nc2n(c(=O)c1CCN1CCC(c3noc4cc(F)ccc34)CC1)CCCC2 [RISPERIDONE] | Not Active | Not Active | Not Active |  |  |  |  |  |  |  |  |  |  |  |  | 
2 | C=CCC1(C(C)CCC)C(=O)NC(=O)NC1=O (centres undefined) [SECOBARBITAL] | Not Active | Not Active | Not Active | Not Active | Not Active | Not Active |  |  |  |  |  |  |  |  |  | 
3 | C[C@@H]1CN(c2c(F)c(N)c3c(=O)c(C(=O)O)cn(C4CC4)c3c2F)C[C@H](C)N1 [SPARFLOXACIN] | Not Active | Not Active | Not Active |  |  | Not Active |  |  |  |  |  |  |  |  |  | 
4 | Cc1noc(NS(=O)(=O)c2ccc(N)cc2)c1C [SULFISOXAZOLE] | Not Active | Not Active | Not Active | Not Active | Not Active | Not Active |  |  |  |  |  |  |  |  |  | 
5 | CSc1ccc(/C=C2/C(C)=C(CC(=O)O)c3cc(F)ccc32)cc1 [SULINDAC SULFIDE] | Not Active | Not Active | Not Active | Not Active | Not Active | Not Active |  |  |  |  |  |  |  |  |  | 
6 | Nc1c2c(nc3ccccc13)CCCC2 [TACRINE] | Not Active | Not Active | Not Active | Not Active | Not Active | Not Active |  |  |  |  |  |  |  |  |  | 
7 | CC/C(=C(\c1ccccc1)c1ccc(OCCN(C)C)cc1)c1ccccc1 [TAMOXIFEN] |  | Not Active |  |  |  |  | 2080 nM | 1330 nM | 3670 nM | 1220 nM | 15700 nM | 8540 nM |  |  |  | 
8 | CC(C)N1CCN(c2ccc(OCC3COC(Cn4cncn4)(c4ccc(Cl)cc4Cl)O3)cc2)CC1 (centres undefined) [TERCONAZOLE] | Not Active | Not Active | Not Active | Not Active | Not Active | Not Active |  |  |  |  |  |  |  |  |  | 
9 | Nc1nc2nc[nH]c2c(=S)[nH]1 [THIOGUANINE] | Not Active | Not Active | Not Active |  |  | Not Active |  |  |  |  |  |  |  |  |  | 
10 | Cc1cccc(N(C)C(=S)Oc2ccc3ccccc3c2)c1 [TOLNAFTATE] | Not Active | Not Active | Not Active | Not Active | Not Active |  | 2010 nM | 1280 nM |  |  |  |  |  |  |  | 
11 | NC[C@H]1CC[C@H](C(=O)O)CC1 [TRANEXAMIC ACID] | Not Active | Not Active | Not Active | Not Active | Not Active | Not Active |  |  |  |  |  |  |  |  |  | 
12 | CC1(C)O[C@@H]2C[C@H]3[C@@H]4CCC5=CC(=O)C=C[C@]5(C)[C@@]4(F)[C@@H](O)C[C@]3(C)[C@]2(C(=O)CO)O1 [TRIAMCINOLONE ACETONIDE] | Not Active | Not Active | Not Active | Not Active | Not Active | Not Active |  |  |  |  |  |  |  |  |  | 
13 | NS(=O)(=O)c1cc2c(cc1Cl)NC(C(Cl)Cl)NS2(=O)=O (centres undefined) [TRICHLORMETHIAZIDE] | Not Active | Not Active | Not Active | Not Active | Not Active | Not Active |  |  |  |  |  |  |  |  |  | 
14 | Cc1c(C)c2c(c(C)c1O)CCC(C)(COc1ccc(CC3SC(=O)NC3=O)cc1)O2 (centres undefined) [TROGLITAZONE] | Not Active | Not Active | Not Active | Not Active | Not Active |  | 1310 nM | 835 nM |  |  |  |  |  |  |  | 
15 | N[C@@H]1[C@H]2CN(c3nc4c(cc3F)c(=O)c(C(=O)O)cn4-c3ccc(F)cc3F)C[C@@H]12 [TROVAFLOXACIN] | Not Active | Not Active | Not Active | Not Active | Not Active | Not Active |  |  |  |  |  |  |  |  |  | 
16 | N#CC(C#N)=Cc1ccc(O)c(O)c1 [TYRPHOSTIN 23] | Not Active | Not Active | Not Active | Not Active | Not Active | Not Active |  |  |  |  |  |  |  |  |  | 
17 | CC[C@]1(O)C[C@H]2CN(CCc3c([nH]c4ccccc34)[C@@](C(=O)OC)(c3cc4c(cc3OC)N(C=O)[C@H]3[C@@](O)(C(=O)OC)[C@H](OC(C)=O)[C@]5(CC)C=CCN6CC[C@]43[C@@H]65)C2)C1 [VINCRISTINE] | Not Active | Not Active | Not Active | Not Active | Not Active | Not Active |  |  |  |  |  |  |  |  |  | 
18 | CCCOc1ccccc1-c1nc2nn[nH]c2c(=O)[nH]1 [ZAPRINAST] | Not Active | Not Active | Not Active | Not Active | Not Active | Not Active |  |  |  |  |  |  |  |  |  | 
19 | SODIUM NITROPRUSSIDE | Not Active | Not Active | Not Active | Not Active | Not Active | Not Active |  |  |  |  |  |  | Not Active | Not Active | Not Active | Not Active

Reference: ChEMBL document CHEMBL1909046, “DrugMatrix in vitro pharmacology data”
